Test results as given in patent US10758534B2 (Vertex Pharmaceuticals Incorporated, priority 2014, dated 2020).

Biological target: T1, F508del (Homo sapiens, UniProt P13569, DEL508-508)
T1 construct: expressed in transfected cells
Test: Protocol 2: FRET membrane potential optical assay (VIPR), identification of correction compounds
Type: cell-based
Conditions: Table 3; compounds of Table 1 as modulators of CFTR activity; protocol not stated
Summary of the method: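 NIH3T3 mouse fibroblasts stably expressing F508del were treated with test compound for 16 hrs at 37° C. in serum-free medium; 27° C. incubation served as positive control. F508del was activated with 10 μM forskolin plus 20 μM genistein in Cl^−-free medium, and Cl^− efflux-driven depolarization was read by DiSBAC2(3)/CC2-DMPE FRET.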

T1 sequence (P13569 with tags, fused parts or gaps DEL508-508): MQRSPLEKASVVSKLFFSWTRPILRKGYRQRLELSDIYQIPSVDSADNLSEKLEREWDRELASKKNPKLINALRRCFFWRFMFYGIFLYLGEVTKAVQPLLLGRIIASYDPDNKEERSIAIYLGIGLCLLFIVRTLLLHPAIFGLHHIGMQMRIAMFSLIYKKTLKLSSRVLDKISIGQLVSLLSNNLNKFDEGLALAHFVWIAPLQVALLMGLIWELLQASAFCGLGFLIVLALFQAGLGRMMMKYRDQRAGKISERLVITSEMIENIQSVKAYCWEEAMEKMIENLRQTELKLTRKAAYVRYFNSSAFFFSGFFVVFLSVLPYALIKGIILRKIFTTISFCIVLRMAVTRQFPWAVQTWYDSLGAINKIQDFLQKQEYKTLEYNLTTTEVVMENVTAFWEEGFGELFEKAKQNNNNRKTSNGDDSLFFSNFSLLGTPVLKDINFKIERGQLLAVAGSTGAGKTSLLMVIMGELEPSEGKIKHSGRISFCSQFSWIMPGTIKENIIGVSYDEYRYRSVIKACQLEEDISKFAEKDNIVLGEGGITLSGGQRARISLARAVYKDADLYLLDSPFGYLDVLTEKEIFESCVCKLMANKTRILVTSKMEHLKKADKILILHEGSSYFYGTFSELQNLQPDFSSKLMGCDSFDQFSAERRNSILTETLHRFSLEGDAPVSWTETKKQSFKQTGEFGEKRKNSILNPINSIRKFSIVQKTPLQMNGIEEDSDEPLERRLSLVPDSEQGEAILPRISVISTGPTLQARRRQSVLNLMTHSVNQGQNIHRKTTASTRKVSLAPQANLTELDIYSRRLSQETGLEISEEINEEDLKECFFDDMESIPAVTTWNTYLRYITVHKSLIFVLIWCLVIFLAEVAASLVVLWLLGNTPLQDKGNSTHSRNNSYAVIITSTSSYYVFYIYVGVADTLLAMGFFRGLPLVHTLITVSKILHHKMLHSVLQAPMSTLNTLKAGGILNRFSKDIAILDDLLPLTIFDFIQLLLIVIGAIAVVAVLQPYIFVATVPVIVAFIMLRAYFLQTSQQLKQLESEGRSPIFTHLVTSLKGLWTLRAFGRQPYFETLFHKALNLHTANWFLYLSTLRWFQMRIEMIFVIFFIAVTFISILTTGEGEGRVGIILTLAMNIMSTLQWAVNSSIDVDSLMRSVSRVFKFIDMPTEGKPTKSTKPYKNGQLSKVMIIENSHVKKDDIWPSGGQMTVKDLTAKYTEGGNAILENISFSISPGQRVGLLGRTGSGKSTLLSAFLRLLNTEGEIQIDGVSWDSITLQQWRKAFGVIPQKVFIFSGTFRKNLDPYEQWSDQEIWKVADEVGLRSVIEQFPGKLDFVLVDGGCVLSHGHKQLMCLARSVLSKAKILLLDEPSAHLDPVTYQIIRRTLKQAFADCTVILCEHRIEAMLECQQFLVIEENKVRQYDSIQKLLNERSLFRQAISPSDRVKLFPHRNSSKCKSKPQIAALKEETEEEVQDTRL

Compound | EC30
Cc1cccc(C)c1Oc1nc(-c2cc(F)cc(OCC(C)C)c2)ccc1C(=O)NS(=O)(=O)c1cccc(N)n1 [Compound 639, N-[(6-amino-2-pyridyl)sulfonyl]-2-(2,6-dimethylphenoxy)-6-(3-fluoro-5-isobutoxy-phenyl)pyridine-3-carboxamide] | +++ (“+++” means <3 uM)
CC(C)COc1cc(F)cc(-c2ccc(C(=O)NS(=O)(=O)c3cccc(N)n3)c(OCC3CCO3)n2)c1 (centres unmarked) [Compound 640, N-[(6-amino-2-pyridyl)sulfonyl]-6-(3-fluoro-5-isobutoxy-phenyl)-2-(oxetan-2-ylmethoxy)pyridine-3-carboxamide] | ++ (“++” means between 3 uM and 10 uM)
CCOc1ccc(-c2ccc(C(=O)NS(=O)(=O)c3cccc(N)n3)c(Oc3ccc(C)cc3C)n2)cc1 [Compound 641, N-[(6-amino-2-pyridyl)sulfonyl]-2-(2,4-dimethylphenoxy)-6-(4-ethoxyphenyl)pyridine-3-carboxamide] | +++ (“+++” means <3 uM)
CC(C)COc1cc(F)cc(-c2ccc(C(=O)NS(=O)(=O)c3ccn[nH]3)c(N3C[C@H](C)C[C@H](C)C3)n2)c1 [Compound 642, 2-[(3R,5S)-3,5-dimethyl-1-piperidyl]-6-(3-fluoro-5-isobutoxy-phenyl)-N-(1H-pyrazol-5-ylsulfonyl)pyridine-3-carboxamide] | +++ (“+++” means <3 uM)
CC1CN(c2nc(-c3ccncc3)ccc2C(=O)NS(=O)(=O)c2cccc(N)n2)C(C)(C)C1 (centres unmarked) [Compound 643, N-[(6-amino-2-pyridyl)sulfonyl]-6-(4-pyridyl)-2-(2,2,4-trimethylpyrrolidin-1-yl)pyridine-3-carboxamide] | ++ (“++” means between 3 uM and 10 uM)
CCCOc1cc(-c2ccc(C(=O)NS(=O)(=O)c3cccc(N)n3)c(N3CC(C)CC3(C)C)n2)ccc1Cl (centres unmarked) [Compound 644, N-[(6-amino-2-pyridyl)sulfonyl]-6-(4-chloro-3-propoxy-phenyl)-2-(2,2,4-trimethylpyrrolidin-1-yl)pyridine-3-carboxamide] | +++ (“+++” means <3 uM)
Cc1cc(C)c(Oc2nc(-c3cc(F)cc(OC(C)C)c3)ccc2C(=O)NS(=O)(=O)c2ccc[nH]c2=O)c(C)c1 [Compound 645, 6-(3-fluoro-5-isopropoxy-phenyl)-N-[(2-oxo-1H-pyridin-3-yl)sulfonyl]-2-(2,4,6-trimethylphenoxy)pyridine-3-carboxamide] | ++ (“++” means between 3 uM and 10 uM)
CNc1cccc(S(=O)(=O)NC(=O)c2ccc(C)nc2Oc2c(C)cc(C)cc2C)n1 [Compound 646, 6-methyl-N-[[6-(methylamino)-2-pyridyl]sulfonyl]-2-(2,4,6-trimethylphenoxy)pyridine-3-carboxamide] | ++ (“++” means between 3 uM and 10 uM)
CC(C)Oc1ccc(-c2ccc(C(=O)NS(=O)(=O)c3cccc(N)n3)c(N3CCC(Cc4ccccc4)C3)n2)cn1 (centres unmarked) [Compound 647, N-[(6-amino-2-pyridyl)sulfonyl]-2-(3-benzylpyrrolidin-1-yl)-6-(6-isopropoxy-3-pyridyl)pyridine-3-carboxamide] | +++ (“+++” means <3 uM)
CCOc1cccc2c1CN(Cc1c(C)cc(C)cc1C)C2(C)C(=O)NS(=O)(=O)c1cccnc1OC (centres unmarked) [Compound 648, 4-ethoxy-N-[(2-methoxy-3-pyridyl)sulfonyl]-1-methyl-2-[(2,4,6-trimethylphenyl)methyl]isoindoline-1-carboxamide] | +++ (“+++” means <3 uM)
CC(C)(C)c1ccc(C(=O)NS(=O)(=O)c2cccc(N)n2)c(OC2CCCCC2)n1 [Compound 649, N-[(6-amino-2-pyridyl)sulfonyl]-6-tert-butyl-2-(cyclohexoxy)pyridine-3-carboxamide] | ++ (“++” means between 3 uM and 10 uM)
Cc1cc(C)c(Oc2nc(NC(C)C)ccc2C(=O)NS(=O)(=O)c2cccc(N)n2)c(C)c1 [Compound 650, N-[(6-amino-2-pyridyl)sulfonyl]-6-(isopropylamino)-2-(2,4,6-trimethylphenoxy)pyridine-3-carboxamide] | ++ (“++” means between 3 uM and 10 uM)
CC(C)COc1cc(F)cc(-c2ccc(C(=O)NS(=O)(=O)c3cccc(N)n3)c(N3CCC[C@H](c4ccccc4)C3)n2)c1 [Compound 651, N-[(6-amino-2-pyridyl)sulfonyl]-6-(3-fluoro-5-isobutoxy-phenyl)-2-[(3R)-3-phenyl-1-piperidyl]pyridine-3-carboxamide] | +++ (“+++” means <3 uM)
COc1cc(F)cc(-c2ccc(C(=O)NS(=O)(=O)c3ccc[nH]c3=O)c(Oc3c(C)cc(C)cc3C)n2)c1 [Compound 652, 6-(3-fluoro-5-methoxy-phenyl)-N-[(2-oxo-1H-pyridin-3-yl)sulfonyl]-2-(2,4,6-trimethylphenoxy)pyridine-3-carboxamide] | ++ (“++” means between 3 uM and 10 uM)
Cc1ccc(-n2c(C(=O)NS(=O)(=O)c3cccc(N)n3)cc3cc(C)ccc32)cc1 [Compound 653, N-[(6-amino-2-pyridyl)sulfonyl]-5-methyl-1-(p-tolyl)indole-2-carboxamide] | + (“+” means greater than 10 uM)
Cc1cc(C)c(Oc2nc(-c3ccccc3)ccc2C(=O)NS(=O)(=O)c2ccc[nH]c2=O)c(C)c1 [Compound 654, N-[(2-oxo-1H-pyridin-3-yl)sulfonyl]-6-phenyl-2-(2,4,6-trimethylphenoxy)pyridine-3-carboxamide] | +++ (“+++” means <3 uM)
CC(C)COc1cc(F)cc(-c2ccc(C(=O)NS(=O)(=O)c3cccc(N)n3)c(N3CCCC(C4CC4)C3)n2)c1 (centres unmarked) [Compound 655, N-[(6-amino-2-pyridyl)sulfonyl]-2-(3-cyclopropyl-1-piperidyl)-6-(3-fluoro-5-isobutoxy-phenyl)pyridine-3-carboxamide] | +++ (“+++” means <3 uM)
CC(C)Oc1ccc(-c2ccc(C(=O)NS(=O)(=O)c3cccc(N)n3)c(N3CCCC(CC(F)(F)F)C3)n2)cn1 (centres unmarked) [Compound 656, N-[(6-amino-2-pyridyl)sulfonyl]-6-(6-isopropoxy-3-pyridyl)-2-[3-(2,2,2-trifluoroethyl)-1-piperidyl]pyridine-3-carboxamide] | +++ (“+++” means <3 uM)
CC(C)COc1cc(F)cc(-c2ccc(C(=O)NS(=O)(=O)c3cccc(N)n3)c(N3CC[C@@H](C)C3(C)C)n2)c1 [Compound 657, N-[(6-amino-2-pyridyl)sulfonyl]-6-(3-fluoro-5-isobutoxy-phenyl)-2-[(3R)-2,2,3-trimethylpyrrolidin-1-yl]pyridine-3-carboxamide] | +++ (“+++” means <3 uM)
CC(C)Oc1ccc(-c2ccc(C(=O)NS(=O)(=O)c3cccc(N)n3)c(N3CCC(Cc4ccccc4)C3C)n2)cn1 (centres unmarked) [Compound 658, N-[(6-amino-2-pyridyl)sulfonyl]-2-(3-benzyl-2-methyl-pyrrolidin-1-yl)-6-(6-isopropoxy-3-pyridyl)pyridine-3-carboxamide] | +++ (“+++” means <3 uM)
CC(C)COc1cc(F)cc(-c2ccc(C(=O)NS(=O)(=O)c3cccc(N)n3)c(N3CCCC3c3ccccn3)n2)c1 (centres unmarked) [Compound 659, N-[(6-amino-2-pyridyl)sulfonyl]-6-(3-fluoro-5-isobutoxy-phenyl)-2-[2-(2-pyridyl)pyrrolidin-1-yl]pyridine-3-carboxamide] | ++ (“++” means between 3 uM and 10 uM)
C[C@@H]1CC[C@H](C)N1c1nc(-c2ccccc2)ccc1C(=O)NS(=O)(=O)c1ccc[nH]c1=O [Compound 660, 2-[(2S,5R)-2,5-dimethylpyrrolidin-1-yl]-N-[(2-oxo-1H-pyridin-3-yl)sulfonyl]-6-phenyl-pyridine-3-carboxamide] | + (“+” means greater than 10 uM)
COc1cccc(-c2ccc(C(=O)NS(=O)(=O)c3cccc(N)n3)c(Oc3c(C)cc(C)cc3C)n2)c1F [Compound 661, N-[(6-amino-2-pyridyl)sulfonyl]-6-(2-fluoro-3-methoxy-phenyl)-2-(2,4,6-trimethylphenoxy)pyridine-3-carboxamide] | +++ (“+++” means <3 uM)
Cc1cc(C)c(CN2CCc3ccccc3CC2C(=O)NS(=O)(=O)c2ccc[nH]c2=O)c(C)c1 (centres unmarked) [Compound 662, N-[(2-oxo-1H-pyridin-3-yl)sulfonyl]-3-[(2,4,6-trimethylphenyl)methyl]-1,2,4,5-tetrahydro-3-benzazepine-4-carboxamide] | + (“+” means greater than 10 uM)
CC(C)COc1cc(F)cc(-c2ccc(C(=O)NS(=O)(=O)c3cccc(N)n3)c(N3CCCC3(C)Cc3ccccc3)n2)c1 (centres unmarked) [Compound 663, N-[(6-amino-2-pyridyl)sulfonyl]-2-(2-benzyl-2-methyl-pyrrolidin-1-yl)-6-(3-fluoro-5-isobutoxy-phenyl)pyridine-3-carboxamide] | +++ (“+++” means <3 uM)
CC1CCN(c2nc(-c3cc(F)cc(OCC4CC4)c3)ccc2C(=O)NS(=O)(=O)c2ccc[nH]c2=O)CC1 [Compound 664, 6-[3-(cyclopropylmethoxy)-5-fluoro-phenyl]-2-(4-methyl-1-piperidyl)-N-[(2-oxo-1H-pyridin-3-yl)sulfonyl]pyridine-3-carboxamide] | +++ (“+++” means <3 uM)
Cc1cc(C)c(Oc2nc3c(cc2C(=O)NS(=O)(=O)c2cccc(N)n2)CCC(C)(C)C3)c(C)c1 [Compound 665, N-[(6-amino-2-pyridyl)sulfonyl]-7,7-dimethyl-2-(2,4,6-trimethylphenoxy)-6,8-dihydro-5H-quinoline-3-carboxamide] | +++ (“+++” means <3 uM)
Cc1ccccc1CN1Cc2ccccc2C1(C)C(=O)NS(=O)(=O)c1cccc(N)n1 (centres unmarked) [Compound 666, N-[(6-amino-2-pyridyl)sulfonyl]-1-methyl-2-(o-tolylmethyl)isoindoline-1-carboxamide] | ++ (“++” means between 3 uM and 10 uM)
Cc1cc(C)c(Oc2nc(C(C)(C)C)ccc2C(=O)NS(=O)(=O)c2cccn(C)c2=O)c(C)c1 [Compound 667, 6-tert-butyl-N-[(1-methyl-2-oxo-3-pyridyl)sulfonyl]-2-(2,4,6-trimethylphenoxy)pyridine-3-carboxamide] | +++ (“+++” means <3 uM)
